Reference: patent publication US12240834B2, “Polymorphs of [2-(1H-indol-3-yl)-1H-imidazol-4-yl] (3,4,5-trimethoxyphenyl)methanone and its salts” (VERU INC., priority 2022, dated 2025)

Experiments:
[1] = Polymorph screen summary of forms (stability designation); type: physicochemical
Source text: Polymorphism is the ability of a chemical entity to exist in different three-dimensional arrangements in the solid state. Different polymorphic forms of a compound can have different physical properties. […] The screen was designed to prepare as many novel crystalline forms as possible and characterize these polymorphs for use in a pharmaceutical product. […] Samples generated during the study were characterized using differential scanning calorimetry (DSC), polarized light microscopy, thermogravimetric analysis (TGA), X-ray powder diffraction (XRD), Fourier transform infrared spectroscopy (FT-IR), and dynamic vapor sorption (DVS). […] These were essentially the same except for minor changes in the diffraction pattern and DSC thermograms. […] The HCl salt was characterized polymorphic as multiple polymorphic forms were made and characterized as described below. […] Based on diffraction behavior, each polymorphic form was studied to determine differentiation. The characterization of each hydrochloride polymorph form began with an X-ray powder diffraction (XRD) data comparison of each form with the other forms. This was generally followed by DSC and TGA analysis.

[2] = Hygroscopicity by dynamic vapor sorption (DVS); type: physicochemical; settings: for DVS behaviour: moisture adsorption-desorption
Procedure: Hygroscopicity—Dynamic Vapor Sorption (DVS)
DVS is a gravimetric technique that measures how quickly and how much of a solvent (water) is absorbed by a sample. The relative humidity or vapor concentration surrounding the sample is varied while the change in mass of the sample is measured. […] The mass values at each relative humidity step are used to generate an isotherm. Isotherms are divided in two components: sorption for increasing humidity steps and desorption for decreasing humidity steps. A plot of kinetic data is also used to show the change in mass and humidity as a function of time.
The samples were analyzed using a TA Q5000 automated dynamic vapor sorption analyzer. The samples were dried at higher temperature than ambient over a period of time and then cooled to 25° C. with a dry nitrogen purge over them until they no longer lost mass at 0% RH (relative humidity). The samples were then subjected to 0 to 90% RH, back to 10% RH at 25° C. in 10% RH steps.

[3] = Non-competitive slurry experiments (solid form stability, XRD readout); type: physicochemical; settings: ambient temperature
Procedure: In addition to the solvent recrystallization experiments (Example 3), non-competitive slurry (Example 4) and competitive slurry (Example 5) experiments were performed to make new solid-state forms. Non-competitive slurry experiments were performed to search for new solid-state forms. These experiments relied on solubility differences of different polymorphic forms (if the compound is polymorphic).
The solution is saturated with respect to the polymorphic form dissolved. […] In addition, noncompetitive slurry experiments are often useful in identifying solvents that form solvates with the compound.
The slurry experiments were performed by exposing excess starting material, which was in all cases in this experiment Form B, to neat single and binary solvent systems and agitating the resulting suspensions for several days at ambient temperature. The solids were vacuum filtered and analyzed by XRD to determine the resulting form. To avoid possible desolvation or physical change after isolation, the samples were not further dried before X-ray analysis.

[4] = Storage of solid forms at ambient conditions (form conversion)

In the case of `COc1cc(C(=O)c2c[nH]c(-c3c[nH]c4ccccc34)n2)cc(OC)c1OC.Cl` [Form D], the “Description (stability / hydrate designation of the form)” value [1] is reported as “Metastable”.
For `COc1cc(C(=O)c2c[nH]c(-c3c[nH]c4ccccc34)n2)cc(OC)c1OC.Cl` [Form CH], the “water uptake (DVS)” value ([2]; at high humidity, returned to starting mass upon completion of the scan) was “up to 0.95 wt %”, the “DVS behaviour” value [2] was “very low uptake of water adsorption” and the “Description (stability / hydrate designation of the form)” value [1] was “Monohydrate”.
With `COc1cc(C(=O)c2c[nH]c(-c3c[nH]c4ccccc34)n2)cc(OC)c1OC.Cl` [Form GH] the “Description (stability / hydrate designation of the form)” value [1] was “Hydrate”.
With `COc1cc(C(=O)c2c[nH]c(-c3c[nH]c4ccccc34)n2)cc(OC)c1OC.Cl` [Form A] the “total weight gain (DVS)” value ([2]; at 90% RH) was “about 0.4%”, the “DVS behaviour” value [2] was “very hydrophobic and does not appear to be prone to hydrate formation” and the “Description (stability / hydrate designation of the form)” value [1] was “Metastable”.
In the case of `COc1cc(C(=O)c2c[nH]c(-c3c[nH]c4ccccc34)n2)cc(OC)c1OC.Cl` [Form FH], the “Description (stability / hydrate designation of the form)” value [1] is reported as “Hydrate”.
For `COc1cc(C(=O)c2c[nH]c(-c3c[nH]c4ccccc34)n2)cc(OC)c1OC` [free base (Form I)], the “form resulting from slurry (XRD)” value ([3]; slurried in acetone, THF or toluene, several days) was “Form II”.
In the case of `COc1cc(C(=O)c2c[nH]c(-c3c[nH]c4ccccc34)n2)cc(OC)c1OC.Cl` [Form H], the “Description (stability / hydrate designation of the form)” value [1] is reported as “Stable Form” and the “form conversion on holding at ambient conditions” value ([4]; held at ambient conditions) is reported as “not observed to convert to any other polymorphic form”.
In the case of `COc1cc(C(=O)c2c[nH]c(-c3c[nH]c4ccccc34)n2)cc(OC)c1OC.Cl` [Form I], the “Description (stability / hydrate designation of the form)” value [1] is reported as “Metastable” and the “form conversion on storage” value ([4]; after a month of storage at ambient conditions) is reported as “converted to a mixture of Form CH and Form H”.
With `COc1cc(C(=O)c2c[nH]c(-c3c[nH]c4ccccc34)n2)cc(OC)c1OC.Cl` [Form B] the “Final Form” value ([3]; 1-Propanol/EtOAc slurry, 11 Days) was “Form E1”, the “Final Form” value ([3]; 2-Propanol/THF slurry, 11 Days) was “Form E1” and the “Final Form” value ([3]; ACN/Acetone slurry, 11 Days) was “Form E1”. For the same compound, the “Final Form” value ([3]; Acetone slurry, 14 Days) was “Form D”, the “Final Form” value ([3]; Acetonitrile slurry, 14 Days) was “Form D” and the “Final Form” value ([3]; Ethanol slurry, 14 Days) was “Solvate”. For the same compound, the “Final Form” value ([3]; Ethanol/Toluene slurry, 11 Days) was “Form E1”, the “Final Form” value ([3]; Ethanol/acetonitrile slurry, 11 Days) was “Form E1” and the “Final Form” value ([3]; Ethyl acetate slurry, 14 Days) was “Form B”. For the same compound, the “Final Form” value ([3]; Heptane slurry, 14 Days) was “Form B”, the “Final Form” value ([3]; MeOH/Acetone slurry, 11 Days) was “Low crystallinity” and the “Final Form” value ([3]; Methanol slurry, 14 Days) was “Solvate”. For the same compound, the “Final Form” value ([3]; Methanol/DCM slurry, 11 Days) was “Solvate”, the “Final Form” value ([3]; Methanol/Water slurry, 11 Days) was “Low crystallinity” and the “Final Form” value ([3]; Methylene chloride slurry, 14 Days) was “Form B”. For the same compound, the “Final Form” value ([3]; TFE/DCM slurry, 11 Days) was “Form B”, the “Final Form” value ([3]; TFE/EtOAc slurry, 11 Days) was “Low order” and the “Final Form” value ([3]; THF slurry, 14 Days) was “Form B”. For the same compound, the “Final Form” value ([3]; Toluene slurry, 14 Days) was “Form B”, the “Final Form” value ([3]; Water slurry, 14 Days) was “Low Crystallinity” and the “Description (stability / hydrate designation of the form)” value [1] was “Metastable”.
